# Measurements: the kinase profiling compilation of Christmann-Franck et al. (2016)
# How the values were obtained:
# Conditions in all cases: compound 10.0 µM
# TSSK1B (human) = TSSK1B (human) (UniProt Q9BXA7)
# CSNK1D (human) = CSNK1D (human) (UniProt P48730)
# TNK2 (human) = TNK2 (human) (UniProt Q07912)
# [1] = test system: EGFR (human), P00533 [G719S]
# [2] = test system: EGFR (human), P00533 [752-759 del]
# LCK (human) = LCK (human) (UniProt P06239)
# [3] = test system: EGFR (human), P00533 [A750P; 747-749 del]
# [4] = test system: FLT3 (human), P36888 [D835Y]
# [5] = test system: ABL1 (human), P00519 [Y253F]
# PIK3CA (human) = PIK3CA (human) (UniProt P42336)
# FRK (human) = FRK (human) (UniProt P42685)
# CDK8 (human) = CDK8 (human) (UniProt P49336)
# AKT2 (human) = AKT2 (human) (UniProt P31751)
# HIPK2 (human) = HIPK2 (human) (UniProt Q9H2X6)
# PAK2 (human) = PAK2 (human) (UniProt Q13177)
# [6] = test system: PIK3CA (human), P42336 [E545K]
# NEK1 (human) = NEK1 (human) (UniProt Q96PY6)
# SRC (human) = SRC (human) (UniProt P12931)
# KDR (human) = KDR (human) (UniProt P35968)
# [7] = test system: EGFR (human), P00533 [746-750 del]
# [8] = test system: EGFR (human), P00533 [T790M]
# MAPK15 (human) = MAPK15 (human) (UniProt Q8TD08)
# [9] = test system: EGFR (human), P00533 [L858R]
# [10] = test system: KIT (human), P10721 [A829P]
# [11] = test system: KIT (human), P10721 [D816H]
# [12] = test system: EGFR (human), P00533 [P753S; 747-752 del]
# CLK2 (human) = CLK2 (human) (UniProt P49760)
# [13] = test system: EGFR (human), P00533 [L861Q]
# [14] = test system: PIK3CA (human), P42336 [H1047L]
# MYLK3 (human) = MYLK3 (human) (UniProt Q32MK0)
# [15] = test system: PIK3CA (human), P42336 [I800L]
# [16] = test system: PIK3CA (human), P42336 [C420R]
# PIK3CG (human) = PIK3CG (human) (UniProt P48736)
# ANKK1 (human) = ANKK1 (human) (UniProt Q8NFD2)
# [17] = test system: EGFR (human), P00533 [747-751 del / S ins]
# [18] = test system: PIK3CA (human), P42336 [H1047Y]
# PIK3CD (human) = PIK3CD (human) (UniProt O00329)
# [19] = test system: PIK3CA (human), P42336 [E545A]
# [20] = test system: ABL1 (human), P00519 [M351T]
# [21] = test system: KIT (human), P10721 [D816V]
# ABL2 (human) = ABL2 (human) (UniProt P42684)
# CSNK1D (human), sequence (P48730 whole entry, looked up): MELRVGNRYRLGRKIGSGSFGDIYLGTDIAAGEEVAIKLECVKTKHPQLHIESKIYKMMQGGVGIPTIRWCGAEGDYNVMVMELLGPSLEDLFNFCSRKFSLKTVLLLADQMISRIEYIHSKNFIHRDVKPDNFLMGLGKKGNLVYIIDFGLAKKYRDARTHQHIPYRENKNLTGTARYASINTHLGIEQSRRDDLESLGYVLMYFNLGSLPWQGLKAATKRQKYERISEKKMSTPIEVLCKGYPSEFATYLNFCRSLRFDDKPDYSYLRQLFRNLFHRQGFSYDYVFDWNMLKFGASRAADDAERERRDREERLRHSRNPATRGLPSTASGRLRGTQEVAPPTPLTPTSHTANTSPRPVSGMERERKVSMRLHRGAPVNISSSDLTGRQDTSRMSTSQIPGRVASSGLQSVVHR
# TNK2 (human), sequence (Q07912 whole entry, looked up): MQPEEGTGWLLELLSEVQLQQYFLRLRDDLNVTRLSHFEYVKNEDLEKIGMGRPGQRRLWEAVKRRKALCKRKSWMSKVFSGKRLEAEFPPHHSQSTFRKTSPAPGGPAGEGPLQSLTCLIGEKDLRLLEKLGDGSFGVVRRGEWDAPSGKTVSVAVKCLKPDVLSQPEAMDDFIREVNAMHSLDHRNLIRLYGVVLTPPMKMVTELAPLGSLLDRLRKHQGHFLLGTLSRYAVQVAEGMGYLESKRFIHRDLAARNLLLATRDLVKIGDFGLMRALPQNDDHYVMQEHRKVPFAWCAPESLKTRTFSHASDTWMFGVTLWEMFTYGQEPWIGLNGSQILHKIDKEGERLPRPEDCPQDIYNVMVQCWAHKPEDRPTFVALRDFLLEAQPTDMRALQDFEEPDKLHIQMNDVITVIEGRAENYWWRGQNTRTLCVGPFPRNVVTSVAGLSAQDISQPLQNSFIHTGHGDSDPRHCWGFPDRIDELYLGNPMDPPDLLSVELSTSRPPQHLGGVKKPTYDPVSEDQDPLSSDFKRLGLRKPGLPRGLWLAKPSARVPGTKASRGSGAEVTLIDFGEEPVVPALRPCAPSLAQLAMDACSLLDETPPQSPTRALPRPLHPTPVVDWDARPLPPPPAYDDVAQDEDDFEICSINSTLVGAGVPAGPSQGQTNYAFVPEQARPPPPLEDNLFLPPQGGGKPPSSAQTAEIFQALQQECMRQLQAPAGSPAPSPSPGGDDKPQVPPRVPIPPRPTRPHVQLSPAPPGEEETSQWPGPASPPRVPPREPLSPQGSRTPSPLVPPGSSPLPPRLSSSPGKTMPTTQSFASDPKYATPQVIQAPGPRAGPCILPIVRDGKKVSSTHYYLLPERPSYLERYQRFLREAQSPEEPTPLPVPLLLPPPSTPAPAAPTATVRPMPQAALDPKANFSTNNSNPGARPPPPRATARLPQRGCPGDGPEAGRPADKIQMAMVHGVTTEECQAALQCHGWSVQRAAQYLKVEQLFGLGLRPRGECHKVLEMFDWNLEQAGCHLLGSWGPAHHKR
# TSSK1B (human), sequence (Q9BXA7 whole entry, looked up): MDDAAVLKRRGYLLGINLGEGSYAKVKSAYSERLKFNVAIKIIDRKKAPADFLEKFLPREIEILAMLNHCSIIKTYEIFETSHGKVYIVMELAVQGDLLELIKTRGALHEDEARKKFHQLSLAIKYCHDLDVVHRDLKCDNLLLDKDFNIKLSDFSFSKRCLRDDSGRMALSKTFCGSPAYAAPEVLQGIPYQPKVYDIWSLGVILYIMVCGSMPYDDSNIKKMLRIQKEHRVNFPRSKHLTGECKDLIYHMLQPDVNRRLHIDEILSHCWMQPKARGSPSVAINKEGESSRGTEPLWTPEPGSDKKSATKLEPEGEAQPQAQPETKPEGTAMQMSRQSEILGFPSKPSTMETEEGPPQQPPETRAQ
# LCK (human), sequence (P06239 whole entry, looked up): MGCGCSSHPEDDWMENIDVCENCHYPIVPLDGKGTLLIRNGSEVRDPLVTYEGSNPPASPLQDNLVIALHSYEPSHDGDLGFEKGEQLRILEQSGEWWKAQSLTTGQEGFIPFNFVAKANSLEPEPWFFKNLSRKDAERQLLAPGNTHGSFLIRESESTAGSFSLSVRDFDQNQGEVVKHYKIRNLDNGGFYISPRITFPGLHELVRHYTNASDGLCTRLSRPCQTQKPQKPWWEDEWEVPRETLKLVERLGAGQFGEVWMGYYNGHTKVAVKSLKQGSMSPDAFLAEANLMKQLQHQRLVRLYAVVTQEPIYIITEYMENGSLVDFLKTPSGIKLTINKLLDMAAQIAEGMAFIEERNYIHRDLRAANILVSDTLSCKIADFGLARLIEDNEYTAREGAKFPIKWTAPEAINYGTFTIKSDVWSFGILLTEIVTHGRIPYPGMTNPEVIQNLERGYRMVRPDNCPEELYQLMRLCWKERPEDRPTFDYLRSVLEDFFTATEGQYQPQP
# MAPK15 (human), sequence (Q8TD08 whole entry, looked up): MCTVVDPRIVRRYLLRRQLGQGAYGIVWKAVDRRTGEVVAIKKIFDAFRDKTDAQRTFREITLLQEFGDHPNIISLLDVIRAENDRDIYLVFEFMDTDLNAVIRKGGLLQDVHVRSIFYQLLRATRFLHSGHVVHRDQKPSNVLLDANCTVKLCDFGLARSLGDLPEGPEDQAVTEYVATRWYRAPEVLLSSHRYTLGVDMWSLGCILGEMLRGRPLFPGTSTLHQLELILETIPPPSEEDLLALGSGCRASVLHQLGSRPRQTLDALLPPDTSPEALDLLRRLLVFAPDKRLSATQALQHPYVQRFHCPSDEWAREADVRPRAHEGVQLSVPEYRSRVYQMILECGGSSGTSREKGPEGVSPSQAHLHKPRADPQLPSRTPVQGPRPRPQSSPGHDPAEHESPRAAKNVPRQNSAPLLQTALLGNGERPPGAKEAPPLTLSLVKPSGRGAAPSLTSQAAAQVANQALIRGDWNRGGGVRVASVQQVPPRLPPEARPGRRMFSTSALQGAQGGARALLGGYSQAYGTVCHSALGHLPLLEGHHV
# AKT2 (human), sequence (P31751 whole entry, looked up): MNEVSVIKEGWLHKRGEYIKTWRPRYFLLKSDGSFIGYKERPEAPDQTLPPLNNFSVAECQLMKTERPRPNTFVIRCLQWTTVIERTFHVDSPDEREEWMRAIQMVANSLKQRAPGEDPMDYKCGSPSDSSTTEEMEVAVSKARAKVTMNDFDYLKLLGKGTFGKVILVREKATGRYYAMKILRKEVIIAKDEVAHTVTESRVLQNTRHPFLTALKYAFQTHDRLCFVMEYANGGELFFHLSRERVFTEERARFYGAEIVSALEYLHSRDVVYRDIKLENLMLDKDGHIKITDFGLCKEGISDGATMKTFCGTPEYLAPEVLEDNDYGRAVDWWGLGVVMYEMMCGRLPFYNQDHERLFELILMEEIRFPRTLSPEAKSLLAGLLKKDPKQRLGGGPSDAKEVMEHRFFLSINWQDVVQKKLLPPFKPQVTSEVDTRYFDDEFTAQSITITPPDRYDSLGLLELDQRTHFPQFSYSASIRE
# KIT (human), P10721 [D816H], sequence (P10721 whole entry D816H, looked up): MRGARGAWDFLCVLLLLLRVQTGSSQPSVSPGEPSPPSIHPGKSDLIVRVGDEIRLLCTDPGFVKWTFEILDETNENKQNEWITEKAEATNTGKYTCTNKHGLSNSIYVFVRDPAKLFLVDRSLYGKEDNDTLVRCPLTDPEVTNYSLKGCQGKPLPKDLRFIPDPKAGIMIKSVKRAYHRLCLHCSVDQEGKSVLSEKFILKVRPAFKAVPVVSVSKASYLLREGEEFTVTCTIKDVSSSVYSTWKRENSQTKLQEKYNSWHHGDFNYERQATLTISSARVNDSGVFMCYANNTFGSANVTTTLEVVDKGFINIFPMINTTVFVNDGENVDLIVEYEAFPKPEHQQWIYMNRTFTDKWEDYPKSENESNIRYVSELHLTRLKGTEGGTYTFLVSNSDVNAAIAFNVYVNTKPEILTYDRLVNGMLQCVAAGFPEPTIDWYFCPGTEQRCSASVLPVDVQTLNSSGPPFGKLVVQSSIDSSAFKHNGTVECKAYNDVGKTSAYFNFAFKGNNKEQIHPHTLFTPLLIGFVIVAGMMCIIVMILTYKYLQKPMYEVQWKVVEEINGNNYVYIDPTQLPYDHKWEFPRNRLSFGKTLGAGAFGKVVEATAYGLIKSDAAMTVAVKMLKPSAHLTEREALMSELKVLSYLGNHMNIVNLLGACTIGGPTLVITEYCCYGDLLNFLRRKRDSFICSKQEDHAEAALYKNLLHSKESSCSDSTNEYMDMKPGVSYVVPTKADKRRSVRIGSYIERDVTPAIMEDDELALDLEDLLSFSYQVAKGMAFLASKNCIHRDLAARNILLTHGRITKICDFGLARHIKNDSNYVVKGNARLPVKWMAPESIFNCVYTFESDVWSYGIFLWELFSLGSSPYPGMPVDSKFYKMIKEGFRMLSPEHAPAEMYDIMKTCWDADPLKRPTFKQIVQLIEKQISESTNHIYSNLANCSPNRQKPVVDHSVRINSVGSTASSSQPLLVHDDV
# PAK2 (human), sequence (Q13177 whole entry, looked up): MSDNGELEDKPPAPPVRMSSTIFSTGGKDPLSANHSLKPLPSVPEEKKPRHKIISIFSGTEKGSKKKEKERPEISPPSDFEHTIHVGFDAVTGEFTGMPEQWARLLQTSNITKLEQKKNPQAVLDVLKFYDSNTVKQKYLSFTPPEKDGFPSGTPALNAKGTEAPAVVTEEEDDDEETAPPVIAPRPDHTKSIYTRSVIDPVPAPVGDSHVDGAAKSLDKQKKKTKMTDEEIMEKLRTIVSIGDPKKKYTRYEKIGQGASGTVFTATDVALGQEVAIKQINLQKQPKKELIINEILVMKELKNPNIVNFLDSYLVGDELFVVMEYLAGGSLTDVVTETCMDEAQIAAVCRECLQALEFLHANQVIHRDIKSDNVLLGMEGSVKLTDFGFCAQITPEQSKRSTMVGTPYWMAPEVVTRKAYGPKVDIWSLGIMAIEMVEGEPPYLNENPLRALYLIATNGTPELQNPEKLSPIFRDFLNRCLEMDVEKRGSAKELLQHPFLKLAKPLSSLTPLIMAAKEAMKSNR
# KIT (human), P10721 [A829P], sequence (P10721 whole entry A829P, looked up): as the sequence (P10721 whole entry D816H, looked up) above, with H816D, A829P counted along it
# KIT (human), P10721 [D816V], sequence (P10721 whole entry D816V, looked up): as the sequence (P10721 whole entry D816H, looked up) above, with H816V counted along it
structure (smiles),measurement,setting,value
CNC(=O)c1cc(Oc2ccc(NC(=O)Nc3ccc(Cl)c(C(F)(F)F)c3)cc2)ccn1,per cent of control,TSSK1B (human),98%
same,per cent of control,CSNK1D (human),84%
same,per cent of control,TNK2 (human),99%
CNC(=O)c1cc(Oc2ccc(NC(=O)Nc3ccc(Cl)c(C(F)(F)F)c3)cc2)cc[n+]1[O-],per cent of control,[1],100%
same,per cent of control,[2],96%
same,per cent of control,LCK (human),2.5%
same,per cent of control,[3],70%
same,per cent of control,[4],2.8%
same,per cent of control,[5],30%
same,per cent of control,TSSK1B (human),100%
same,per cent of control,PIK3CA (human),95%
same,per cent of control,FRK (human),1.8%
same,per cent of control,CDK8 (human),0.6%
same,per cent of control,AKT2 (human),88%
same,per cent of control,HIPK2 (human),20%
same,per cent of control,PAK2 (human),93%
same,per cent of control,[6],100%
same,per cent of control,NEK1 (human),84%
same,per cent of control,SRC (human),53%
same,per cent of control,KDR (human),0.4%
same,per cent of control,[7],84%
same,per cent of control,CSNK1D (human),91%
same,per cent of control,[8],100%
same,per cent of control,MAPK15 (human),0.6%
same,per cent of control,[9],88%
same,per cent of control,[10],26%
same,per cent of control,[11],17%
same,per cent of control,[12],77%
same,per cent of control,CLK2 (human),80%
same,per cent of control,[13],74%
same,per cent of control,[14],98%
same,per cent of control,MYLK3 (human),2.8%
same,per cent of control,[15],100%
same,per cent of control,[16],40%
same,per cent of control,PIK3CG (human),82%
same,per cent of control,TNK2 (human),100%
same,per cent of control,ANKK1 (human),58%
same,per cent of control,[17],76%
same,per cent of control,[18],100%
same,per cent of control,PIK3CD (human),100%
same,per cent of control,[19],100%
same,per cent of control,[20],21%
same,per cent of control,[21],2.6%
same,per cent of control,ABL2 (human),25%
